This passage reports IC50 results from US20070021509A1, “Phosphate transport inhibitors” (priority 2001, published 2007).

Structures are written as SMILES.

For the assay, the system named is phosphate uptake by rabbit intestinal Brush Border Membrane Vesicles (BBMV). The experiment in a line: 33PO4 uptake in rabbit intestinal BBMV (HTS), phosphate transporter inhibition in vitro. It counts as biochemical. The following applies: Table 2, phosphate uptake, read-out: IC50. The procedure: The following example outlines the procedures required for in vitro measurement of the inhibition of phosphate uptake by rabbit intestinal Brush Border Membrane Vesicles (BBMV).
Rabbit Intestinal Brush Border Membrane Vesicles (BBMV) were isolated from mucosal scrapings of the upper small intestine (duodenum) of male New Zealand White rabbits. The scrapings were divided into 2 g aliquots in cryopreservation vials, frozen in liquid nitrogen, and stored at −80° C.
The following procedure was performed for each 2 g sample of BBMV mucosal scraping. Buffer volumes and container sizes were adjusted appropriately for the number of 2 g samples used. The entire preparation was performed on ice, unless otherwise stated.
Mucosal scrapings (2 g per tube) were thawed in a 37° C. water bath for 3 minutes and then placed on ice. The scrapings were suspended with a total of 7.5 ml of 300 MET, and transferred to a 250 mL Corning tube on ice. To the suspension was added 30 mL cold (4° C.) deionized water (dH20). The suspension was homogenized with a tissue homogenizer (Polytron) on high speed for 2 minutes. A stir bar and MgCl2 (81.3 mg) was added. The suspension was mixed well by inverting the closed tube. The suspension was stirred on ice, ensuring that a good vortex is achieved with the stir bar, for 40 minutes. The suspension was transferred to a chilled centrifuge tube and spun at 4000×g for 15 minutes. The supernatant was transferred to a new chilled centrifuge tube and spun at 32000×g for 30 minutes. The supernatant was discarded and the pellet was re-suspended with 34 mL cold 60 MET. The suspension was homogenized with a Dounce homogenizer with 8 strokes. The suspension was transferred to a fresh 250 mL Corning tube. A stir bar and 69.1 mg MgCl2 were added. The suspension was stirred well on ice for 10 minutes. The suspension was transferred to a chilled centrifuge tube and spun at 4000×g for 15 minutes. The supernatant was transferred to a new chilled centrifuge tube and spun at 32000×g for 30 minutes. The supernatant was discarded. At this stage, the preparation could be continued or this pellet (P4) could be frozen in liquid nitrogen and stored at −80° C. When needed, this pellet could be allowed to thaw at room temperature for 5 minutes. Continuing the preparation, the pellet was re-suspended with 34 mL cold 280 MH. The suspension was homogenized in a Dounce homogenize with 8 strokes. The suspension was transferred to a new chilled centrifuge tube and spun at 32000×g for 30 minutes. The supernatant was discarded. To the pellet was added 500 μL 280 MH and the pellet was re-suspended very carefully with a 1 mL tuberculin syringe with a 25-gauge needle with care not to create bubbles. Once the entire pellet was suspended, the suspension was transferred to a chilled 1.5 mL microfuge tube. The suspension was evenly dispersed by bringing the suspension up into the syringe through the 25-gauge needle, and back out again 8 times with care not to create bubbles. The total protein concentration was determined by performing a Bradford Protein Assay. Using that value, the BBMV were diluted with 280 MH to reach approximately 0.5-2.0 mg/mL. The solution was used as soon as possible for uptake studies.
The following experiment was performed using a Beckman Multimek 96-tip robotic pipettor. The following outlines the preparation required to screen one 96-well plate of compounds. However, multiple plates could be screened in one experiment.
To the “Uptake Buffers” was added ^33PO4 to reach 200,000 CPM/19 μL. The buffer solutions were stored at room temperature. The following control solutions were prepared and placed into appropriate wells of a polypropylene, 96-well V-bottom plate (“Hot Stock Plate”):
a. Maximum activity (MAX)−Na Uptake buffer+^33PO4 at 200,000 CPM/19 μL
b. Midline activity (MID)−MAX+100 μM KH2PO4, pH 7.4
c. Minimum activity (MIN)− K Uptake buffer+^33PO4 at 200,000 CPM/19 μL
The term IC50 denotes the midpoint of a concentration-inhibition curve. As for `O=C(NCc1cc(F)ccc1F)c1cc(Br)ccc1NS(=O)(=O)c1ccc(OC(F)(F)F)cc1` [Compound 66], the IC50 lay in the range of 51 to 100 µM.

For `Cc1ccccc1CNC(=O)c1cc(Br)ccc1NS(=O)(=O)c1ccc(OC(F)(F)F)cc1` [Compound 67], the IC50 lay within 51 to 100 µM.

On to `O=C(Nc1ccccc1-n1cccc1)c1cc(Br)ccc1NS(=O)(=O)c1ccc(OC(F)(F)F)cc1` [Compound 68], for which the IC50 was 101 to 500 µM.

As for `O=C(NCc1cc(C(F)(F)F)cc(C(F)(F)F)c1)c1cc(Br)ccc1NS(=O)(=O)c1ccc(OC(F)(F)F)cc1` [Compound 69], the IC50 was in the range of 101 to 500 µM.

For the compound `O=C(NCc1ccccc1F)c1cc(Br)ccc1NS(=O)(=O)c1ccc(OC(F)(F)F)cc1` [Compound 70], the IC50 is 101 to 500 µM.

With `CC(C)(C)c1ccc(NC(=O)c2cc(Br)ccc2NS(=O)(=O)c2ccc(OC(F)(F)F)cc2)cc1` [Compound 71], the IC50 was 101 to 500 µM.

On to `O=C(Nc1cccc(Br)c1)c1cc(Br)ccc1NS(=O)(=O)c1ccc(OC(F)(F)F)cc1` [Compound 72], for which the IC50 lay within 101 to 500 µM.

In the case of `O=C(Nc1ccc(-c2ccccc2)cc1)c1cc(Br)ccc1NS(=O)(=O)c1ccc(OC(F)(F)F)cc1` [Compound 73], the half-maximal inhibitory concentration (IC50) fell in the range of 101 to 500 µM.

With `O=C(Nc1ccc(Oc2ccccc2)cc1)c1cc(Br)ccc1NS(=O)(=O)c1ccc(OC(F)(F)F)cc1` [Compound 74], the IC50 lay within 101 to 500 µM.

As to `O=C(NC1CCCCC1)c1cc(Br)ccc1NS(=O)(=O)c1ccc(OC(F)(F)F)cc1` [Compound 75], the IC50 is 101 to 500 µM.

`O=C(NC1CCCc2ccccc21)c1cc(Br)ccc1NS(=O)(=O)c1ccc(OC(F)(F)F)cc1` (stereo not drawn) [Compound 76]: the IC50 was 101 to 500 µM.

As to `COc1ccc(CNC(=O)c2cc(Br)ccc2NS(=O)(=O)c2ccc(OC(F)(F)F)cc2)cc1` [Compound 77], the IC50 lay within 101 to 500 µM.

Take `O=C(Nc1cccc(Cl)c1)c1cc(Br)ccc1NS(=O)(=O)c1ccc(OC(F)(F)F)cc1` [Compound 78]: the IC50 fell in the range of 101 to 500 µM.

Regarding `O=C(Nc1ccc(Cl)cc1Cl)c1cc(Br)ccc1NS(=O)(=O)c1ccc(OC(F)(F)F)cc1` [Compound 79], the IC50 was 101 to 500 µM.

On to `O=C(Nc1cc(Cl)ccc1Cl)c1cc(Br)ccc1NS(=O)(=O)c1ccc(OC(F)(F)F)cc1` [Compound 80], for which the IC50 is 501 to 1000 µM.

Take `CCCCCCCCCCc1ccc(NC(=O)c2cc(Br)ccc2NS(=O)(=O)c2ccc(OC(F)(F)F)cc2)cc1` [Compound 81]: the IC50 lay in the range of 501 to 1000 µM.

As to `Cc1ccc(CNC(=O)c2cc(Br)ccc2NS(=O)(=O)c2ccc(OC(F)(F)F)cc2)cc1` [Compound 82], the IC50 lay within 501 to 1000 µM.

Turning to `Cc1c(Cl)cccc1NC(=O)c1cc(Br)ccc1NS(=O)(=O)c1ccc(OC(F)(F)F)cc1` [Compound 83], the IC50 is 501 to 1000 µM.

With `Cc1cc(Br)ccc1NC(=O)c1cc(Br)ccc1NS(=O)(=O)c1ccc(OC(F)(F)F)cc1` [Compound 84], the IC50 lay within 1000 to 1500 µM.

Take `O=C(Nc1ccc(Cl)cc1Cl)c1cc(Br)ccc1NS(=O)(=O)c1ccc(Cl)cc1` [Compound 85]: the IC50 lay in the range of 51 to 100 µM.

As to `O=C(Nc1ccccc1Cl)c1cc(Br)ccc1NS(=O)(=O)c1ccc(Cl)cc1` [Compound 86], the IC50 is 51 to 100 µM.

As for `O=C(Nc1cc(Cl)ccc1Cl)c1cc(Br)ccc1NS(=O)(=O)c1ccc(Cl)cc1` [Compound 87], the IC50 lay in the range of 51 to 100 µM.

On to `O=C(Nc1ccccc1F)c1cc(Br)ccc1NS(=O)(=O)c1ccc(Cl)cc1` [Compound 88], for which the IC50 is 101 to 500 µM.

`COc1ccccc1NC(=O)c1cc(Br)ccc1NS(=O)(=O)c1ccc(Cl)cc1` [Compound 89]: the IC50 lay in the range of 101 to 500 µM.

Consider `O=C(Nc1ccccc1Br)c1cc(Br)ccc1NS(=O)(=O)c1ccc(Cl)cc1` [Compound 90], for which the IC50 lay in the range of 101 to 500 µM.

As for `O=C(Nc1cccc(Br)c1)c1cc(Br)ccc1NS(=O)(=O)c1ccc(Cl)cc1` [Compound 91], the IC50 is greater than 1500 µM.

As to `Cc1c(Cl)cccc1NC(=O)c1cc(Br)ccc1NS(=O)(=O)c1ccc(Cl)cc1` [Compound 93], the half-maximal inhibitory concentration (IC50) was greater than 1500 µM.

In the case of `Cc1ccccc1NC(=O)c1cc(Br)ccc1NS(=O)(=O)c1ccc(Cl)cc1` [Compound 94], the IC50 was greater than 1500 µM.

Turning to `O=C(Nc1cccc(Cl)c1)c1cc(Br)ccc1NS(=O)(=O)c1ccc(Cl)cc1` [Compound 95], the IC50 is greater than 1500 µM.

As for `O=C(c1ccc(Cl)cc1)c1cc(NC(=O)c2cc(Br)ccc2NS(=O)(=O)c2ccc(Cl)cc2)ccc1Cl` [Compound 96], the IC50 is greater than 1500 µM.

On to `O=C(Nc1ccc(Cl)cc1)c1cc(Br)ccc1NS(=O)(=O)c1ccc(Cl)cc1` [Compound 97], for which the IC50 is greater than 1500 µM.

`COc1ccc(S(=O)(=O)Nc2ccc(Br)cc2C(=O)Nc2cc(Cl)ccc2Cl)cc1[N+](=O)[O-]` [Compound 98]: the IC50 was in the range of 51 to 100 µM.

Consider `COc1ccc(S(=O)(=O)Nc2ccc(Br)cc2C(=O)Nc2ccccc2Cl)cc1[N+](=O)[O-]` [Compound 99], for which the IC50 lay in the range of 51 to 100 µM.

As to `COc1ccc(S(=O)(=O)Nc2ccc(Br)cc2C(=O)Nc2cccc(Cl)c2C)cc1[N+](=O)[O-]` [Compound 100], the IC50 is 51 to 100 µM.

As for `COc1ccc(S(=O)(=O)Nc2ccc(Br)cc2C(=O)Nc2cccc(Cl)c2)cc1[N+](=O)[O-]` [Compound 101], the IC50 fell in the range of 51 to 100 µM.

`COc1ccc(S(=O)(=O)Nc2ccc(Br)cc2C(=O)Nc2ccccc2F)cc1[N+](=O)[O-]` [Compound 102]: the IC50 lay within 51 to 100 µM.

In the case of `COc1ccc(S(=O)(=O)Nc2ccc(Br)cc2C(=O)Nc2cccc(Br)c2)cc1[N+](=O)[O-]` [Compound 103], the IC50 fell in the range of 51 to 100 µM.

Consider `COc1ccc(S(=O)(=O)Nc2ccc(Br)cc2C(=O)Nc2ccc(Cl)cc2Cl)cc1[N+](=O)[O-]` [Compound 104], for which the IC50 lay in the range of 51 to 100 µM.

On to `COc1ccc(S(=O)(=O)Nc2ccc(Br)cc2C(=O)Nc2ccccc2Br)cc1[N+](=O)[O-]` [Compound 105], for which the IC50 is 51 to 100 µM.

For the compound `COc1ccccc1NC(=O)c1cc(Br)ccc1NS(=O)(=O)c1ccc(OC)c([N+](=O)[O-])c1` [Compound 106], the IC50 is 101 to 500 µM.

For the compound `COc1ccc(S(=O)(=O)Nc2ccc(Br)cc2C(=O)Nc2ccccc2C(=O)O)cc1[N+](=O)[O-]` [Compound 107], the half-maximal inhibitory concentration (IC50) was in the range of 101 to 500 µM.

Regarding `COc1ccc(S(=O)(=O)Nc2ccc(Br)cc2C(=O)Nc2ccccc2C)cc1[N+](=O)[O-]` [Compound 108], the IC50 was in the range of 101 to 500 µM.

As to `O=C(Nc1ccc(Cl)c(Cl)c1)c1cc(Br)ccc1NS(=O)(=O)c1ccc(Cl)c([N+](=O)[O-])c1` [Compound 110], the IC50 was less than 50 µM.

Regarding `O=C(Nc1cc(Cl)ccc1Cl)c1cc(Br)ccc1NS(=O)(=O)c1ccc(Cl)c([N+](=O)[O-])c1` [Compound 111], the IC50 is less than 50 µM.

On to `O=C(Nc1cc(Cl)ccc1Cl)c1cc(Br)ccc1NS(=O)(=O)c1ccc(Cl)c([N+](=O)[O-])c1` [Compound 112], for which the IC50 is less than 50 µM.

`O=C(Nc1ccc(Cl)c(Cl)c1)c1cc(Br)ccc1NS(=O)(=O)c1ccc(Cl)c([N+](=O)[O-])c1` [Compound 113]: the IC50 was in the range of 51 to 100 µM.

As for `O=C(Nc1ccccc1Br)c1cc(Br)ccc1NS(=O)(=O)c1ccc(Cl)c([N+](=O)[O-])c1` [Compound 114], the IC50 was in the range of 51 to 100 µM.

As to `O=C(Nc1cc(Cl)ccc1Cl)c1cc(Br)ccc1NS(=O)(=O)c1ccc(Cl)c([N+](=O)[O-])c1` [Compound 115], the IC50 is 51 to 100 µM.

`O=C(Nc1cccc(Br)c1)c1cc(Br)ccc1NS(=O)(=O)c1ccc(Cl)c([N+](=O)[O-])c1` [Compound 116]: the IC50 lay in the range of 101 to 500 µM.

Turning to `COc1ccccc1NC(=O)c1cc(Br)ccc1NS(=O)(=O)c1ccc(Cl)c([N+](=O)[O-])c1` [Compound 117], the IC50 lay in the range of 101 to 500 µM.

With `O=C(Nc1ccccc1Cl)c1cc(Br)ccc1NS(=O)(=O)c1ccc(Cl)c([N+](=O)[O-])c1` [Compound 118], the IC50 lay within 101 to 500 µM.
